{
  "source": "patent US20260297042A1",
  "about": "“BIARYLAMIDE DERIVATIVES AND THEIR USE AS PKMYT1 INHIBITORS” (CANCER RESEARCH TECHNOLOGY LIMITED, priority 2023, published 2026)",
  "key": {"KYSE-30 cells": {"system": "KYSE-30 cells", "assay": "Cancer cell line proliferation assay, ATP-based cell viability (Cell Titre Glow), KYSE-30 (normal CCNE1)", "details": "Homo sapiens, KYSE-30 cells (normal CCNE1), concentration that achieves 50% cell growth proliferation inhibition, read-out: KYSE30 Gl50", "outline": "(§1)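 Luminescence read-out from an ATP-based viability reagent served as the proliferation measure. Values are GI50 estimates, i.e. concentrations producing 50% inhibition of cell growth.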"}, "[1]": {"target": "T1, Cellular PKMYT1 Biomarker CDK1 pT14 (Homo sapiens, UniProt Q99640)", "T1 construct": "read-out CDK1 phospho-T14 immunoblot", "T1 sequence (Q99640 1-499)": "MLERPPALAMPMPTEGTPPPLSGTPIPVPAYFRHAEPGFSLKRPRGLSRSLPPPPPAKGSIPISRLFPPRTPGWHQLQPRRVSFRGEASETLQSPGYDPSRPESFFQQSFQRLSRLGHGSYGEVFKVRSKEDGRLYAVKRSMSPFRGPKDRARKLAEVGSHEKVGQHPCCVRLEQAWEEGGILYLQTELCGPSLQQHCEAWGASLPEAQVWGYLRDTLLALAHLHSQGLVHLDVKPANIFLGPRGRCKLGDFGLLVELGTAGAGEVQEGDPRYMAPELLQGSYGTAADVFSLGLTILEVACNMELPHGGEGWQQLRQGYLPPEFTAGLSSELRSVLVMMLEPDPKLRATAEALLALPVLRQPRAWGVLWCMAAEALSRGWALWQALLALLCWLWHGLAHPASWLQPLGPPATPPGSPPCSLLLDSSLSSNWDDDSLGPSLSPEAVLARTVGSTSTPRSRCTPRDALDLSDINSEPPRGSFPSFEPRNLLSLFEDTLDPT", "assay": "Inhibition of cellular PKMYT1 biomarker CDK1 pT14 in OVCAR 3 cells (immunoblot)", "assay_type": "cell-based", "details": "20 hours incubation", "outline": "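Confluent OVCAR 3 cells treated with a compound concentration range for 20 h at 37 °C. Lysates analysed by automated capillary immunoblot for CDK1 phospho-T14, with vinculin, fluorescence detection; IC50 by regression.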"}, "Human PKMYT1": {"target": "T2, Human PKMYT1 (Homo sapiens, UniProt Q99640)", "T2 construct": "Human PKMYT1 75-362 was cloned as a TEV cleavable 6xHis fusion; 6xHis (TEV cleavable) (cleaved yes); made in house; host or cells: bacterial cells", "T2 sequence (Q99640 75-362)": "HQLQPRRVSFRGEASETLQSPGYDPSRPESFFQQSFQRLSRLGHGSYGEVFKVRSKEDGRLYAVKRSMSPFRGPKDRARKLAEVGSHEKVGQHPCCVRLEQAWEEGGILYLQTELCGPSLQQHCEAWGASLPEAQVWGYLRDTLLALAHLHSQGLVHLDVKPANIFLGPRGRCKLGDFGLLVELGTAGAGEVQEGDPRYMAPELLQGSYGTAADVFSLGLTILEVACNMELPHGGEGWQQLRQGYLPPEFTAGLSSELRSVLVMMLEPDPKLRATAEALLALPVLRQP", "assay": "PKMYT1 biochemical ADP-Glo enzymatic assay", "details": "ADP-Glo", "outline": "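Purified untagged human PKMYT1 75-362 at 15 nM final was tested in HEPES pH 7.5 with MgCl2, EGTA, Brij-35 and 1% DMSO. Intrinsic ATPase activity was measured with 500 uM ATP over 60 min at 26° C. ADP-Glo luminescence was read and IC50 fitted from 10-point, 3-fold dilution curves.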"}, "OVCAR 3 cells": {"system": "OVCAR 3 cells", "assay": "Cancer cell line proliferation assay, ATP-based cell viability (Cell Titre Glow), OVCAR 3 (CCNE1-amplified)", "details": "KYSE30 (normal CCNE1) GI50 vs. OVCAR 3 (CCNE1-amplified) GI50", "outline": "as §1"}, "WEE1": {"target": "T3, WEE1 (Homo sapiens, UniProt P30291)", "T3 construct": "purchased Thermo Fisher PR7373A", "T3 sequence (P30291 whole entry)": "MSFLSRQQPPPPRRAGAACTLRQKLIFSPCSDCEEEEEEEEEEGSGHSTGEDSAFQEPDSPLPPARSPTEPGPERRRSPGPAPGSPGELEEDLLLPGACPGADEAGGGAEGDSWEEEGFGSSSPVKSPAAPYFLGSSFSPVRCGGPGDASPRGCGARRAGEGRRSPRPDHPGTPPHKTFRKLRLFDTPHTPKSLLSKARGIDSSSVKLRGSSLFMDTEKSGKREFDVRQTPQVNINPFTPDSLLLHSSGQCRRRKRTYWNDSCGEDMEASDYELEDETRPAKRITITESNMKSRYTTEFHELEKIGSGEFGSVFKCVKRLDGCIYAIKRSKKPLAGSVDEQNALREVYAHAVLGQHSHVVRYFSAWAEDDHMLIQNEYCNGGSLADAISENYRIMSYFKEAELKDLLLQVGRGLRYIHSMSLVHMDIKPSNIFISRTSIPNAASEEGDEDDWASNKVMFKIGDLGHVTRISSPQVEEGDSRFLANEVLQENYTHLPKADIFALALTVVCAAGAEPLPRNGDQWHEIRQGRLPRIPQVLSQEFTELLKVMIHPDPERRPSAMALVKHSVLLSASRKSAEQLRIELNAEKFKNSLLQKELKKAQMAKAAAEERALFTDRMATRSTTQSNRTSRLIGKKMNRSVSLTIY", "assay": "Selectivity versus WEE1 assay (ADP-Glo enzymatic assay)", "assay_type": "biochemical", "details": "for IC50: ADP-Glo; for PKMYT1 vs. WEE1 selectivity: fold difference in selectivity for PKMYT1 over WEE1", "outline": "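WEE1 at 15 nM final in 50 mM HEPES pH 7.5, 10 mM MgCl2, 1 mM EGTA, 0.01% Brij-35, 1% DMSO; reaction started with 30 µM ATP, 60 min at 26 °C. ADP-Glo luminescence; IC50 from dose-response curves, replicates within 3-fold and r2 >0.9.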"}, "[2]": {"details": "15 nM PKMYT1 kinase domain, 500 µM ATP, 60 minutes at 26° C., banded"}, "[3]": {"details": "15 nM WEE1, 60 minutes at 26° C., banded"}, "[4]": {"details": "banded, \">N\" = at least in this band but could be higher"}, "[5]": {"details": "PKMYT1 kinase domain 15 nM, banded values"}},
  "data": [
    {"smiles": "Cc1ccc(O)c(C)c1NC(=O)c1cnc(Nc2nccc3ccc(F)cc23)s1", "note": "[BAA-303, 2-((7-fluoroisoquinolin-1-yl)amino)-N-(3-hydroxy-2,6-dimethylphenyl)thiazole-5-carboxamide]", "values": [
      {"measurement": "GI50", "setting": "KYSE-30 cells", "value": "500 to 5000", "unit": "nM"},
      {"measurement": "IC50", "setting": "[1]", "value": "< 100", "unit": "nM"},
      {"measurement": "IC50", "setting": "Human PKMYT1; [2]", "value": "< 50", "unit": "nM"},
      {"measurement": "Selectivity ratio KYSE30 Gl50 vs. OVCAR3 Gl50", "setting": "OVCAR 3 cells", "value": "X (3-20 fold)"},
      {"measurement": "IC50", "setting": "WEE1; [3]", "value": "> 11000", "unit": "nM"},
      {"measurement": "PKMYT1 vs. WEE1 selectivity", "setting": "WEE1; [4]", "value": "Y (1000-5000 fold)"}
    ]},
    {"smiles": "Cc1cn(-c2ccccn2)nc1Nc1ncc(C(=O)Nc2c(C)ccc(O)c2C)s1", "note": "[BAA-365, N-(3-hydroxy-2,6-dimethylphenyl)-2-((4-methyl-1-(pyridin-2-yl)-1H-pyrazol-3-yl)amino)thiazole-5-carboxamide]", "values": [
      {"measurement": "GI50", "setting": "KYSE-30 cells", "value": "500 to 5000", "unit": "nM"},
      {"measurement": "IC50", "setting": "[1]", "value": "< 100", "unit": "nM"},
      {"measurement": "IC50", "setting": "Human PKMYT1; [2]", "value": "< 50", "unit": "nM"},
      {"measurement": "Selectivity ratio KYSE30 Gl50 vs. OVCAR3 Gl50", "setting": "OVCAR 3 cells", "value": "Y (>20 fold)"},
      {"measurement": "IC50", "setting": "WEE1; [3]", "value": "> 11000", "unit": "nM"},
      {"measurement": "PKMYT1 vs. WEE1 selectivity", "setting": "WEE1; [4]", "value": "X (100-<1000 fold)"}
    ]},
    {"smiles": "Cc1cc(Nc2ncc(C(=O)Nc3c(C)ccc(O)c3C)s2)nc(N2CCC(F)(F)CC2)n1", "note": "[BAA-313, 2-((2-(4,4-difluoropiperidin-1-yl)-6-methylpyrimidin-4-yl)amino)-N-(3-hydroxy-2,6-dimethylphenyl)thiazole-5-carboxamide]", "values": [
      {"measurement": "GI50", "setting": "KYSE-30 cells", "value": "500 to 5000", "unit": "nM"},
      {"measurement": "IC50", "setting": "[1]", "value": "< 100", "unit": "nM"},
      {"measurement": "IC50", "setting": "Human PKMYT1; [2]", "value": "50 to 1000", "unit": "nM"},
      {"measurement": "Selectivity ratio KYSE30 Gl50 vs. OVCAR3 Gl50", "setting": "OVCAR 3 cells", "value": "Y (>20 fold)"},
      {"measurement": "IC50", "setting": "WEE1; [3]", "value": "> 11000", "unit": "nM"},
      {"measurement": "PKMYT1 vs. WEE1 selectivity", "setting": "WEE1; [4]", "value": "X (100-<1000 fold)"}
    ]},
    {"smiles": "Cc1ccc(O)c(C)c1NC(=O)c1cnc(Nc2nc(NC(=O)C(C)(C)C)ccc2Cl)s1.Cl", "note": "[BAA-333, 2-((3-chloro-6-pivalamidopyridin-2-yl)amino)-N-(3-hydroxy-2,6-dimethylphenyl)thiazole-5-carboxamide hydrochloride]", "values": [
      {"measurement": "GI50", "setting": "KYSE-30 cells", "value": "> 5000", "unit": "nM"},
      {"measurement": "IC50", "setting": "[1]", "value": "< 100", "unit": "nM"},
      {"measurement": "IC50", "setting": "Human PKMYT1; [2]", "value": "50 to 1000", "unit": "nM"},
      {"measurement": "Selectivity ratio KYSE30 Gl50 vs. OVCAR3 Gl50", "setting": "OVCAR 3 cells", "value": "Y (>20 fold)"},
      {"measurement": "IC50", "setting": "WEE1; [3]", "value": "> 11000", "unit": "nM"},
      {"measurement": "PKMYT1 vs. WEE1 selectivity", "setting": "WEE1; [4]", "value": "Y (1000-5000 fold)"}
    ]},
    {"smiles": "Cc1ccc(O)c(C)c1NC(=O)c1cnc(Nc2cccc(N3CCN(C)CC3)n2)s1", "note": "[BAA-423, N-(3-hydroxy-2,6-dimethylphenyl)-2-((6-(4-methylpiperazin-1-yl)pyridin-2-yl)amino)thiazole-5-carboxamide]", "values": [
      {"measurement": "GI50", "setting": "KYSE-30 cells", "value": "500 to 5000", "unit": "nM"},
      {"measurement": "IC50", "setting": "[1]", "value": "< 100", "unit": "nM"},
      {"measurement": "IC50", "setting": "Human PKMYT1; [5]", "value": "< 50", "unit": "nM"},
      {"measurement": "Selectivity ratio KYSE30 Gl50 vs. OVCAR3 Gl50", "setting": "OVCAR 3 cells", "value": "Y (>20 fold)"},
      {"measurement": "IC50", "setting": "WEE1; WEE1 15 nM, banded values", "value": "1000 to 11000", "unit": "nM"},
      {"measurement": "PKMYT1 vs. WEE1 selectivity", "setting": "WEE1; banded", "value": "W (10-<100 fold)"}
    ]},
    {"smiles": "Cc1ccc(O)c(C)c1NC(=O)c1cnc(Nc2nn(CCF)cc2Cl)s1", "note": "[BAA-582, 2-((4-chloro-1-(2-fluoroethyl)-1H-pyrazol-3-yl)amino)-N-(3-hydroxy-2,6-dimethylphenyl)thiazole-5-carboxamide]", "values": [
      {"measurement": "GI50", "setting": "KYSE-30 cells", "value": "500 to 5000", "unit": "nM"},
      {"measurement": "IC50", "setting": "[1]", "value": "< 100", "unit": "nM"},
      {"measurement": "IC50", "setting": "Human PKMYT1; [5]", "value": "< 50", "unit": "nM"},
      {"measurement": "Selectivity ratio KYSE30 Gl50 vs. OVCAR3 Gl50", "setting": "OVCAR 3 cells", "value": "Y (>20 fold)"},
      {"measurement": "IC50", "setting": "WEE1; WEE1 15 nM, banded values", "value": "1000 to 11000", "unit": "nM"},
      {"measurement": "PKMYT1 vs. WEE1 selectivity", "setting": "WEE1; banded", "value": "X (100-<1000 fold)"}
    ]},
    {"smiles": "Cc1nc(Nc2ncc(C(=O)Nc3c(C)ccc(O)c3C)s2)cc(N2CCN(CCO)CC2)n1", "note": "[BAA-220, N-(3-hydroxy-2,6-dimethyl-phenyl)-2-[[6-[4-(2-hydroxyethyl)piperazin-1-yl]-2-methyl-pyrimidin-4-yl]amino]thiazole-5-carboxamide]", "values": [
      {"measurement": "GI50", "setting": "KYSE-30 cells", "value": "> 5000", "unit": "nM"},
      {"measurement": "IC50", "setting": "[1]", "value": "100 to 1000", "unit": "nM"},
      {"measurement": "IC50", "setting": "Human PKMYT1; [2]", "value": "< 50", "unit": "nM"},
      {"measurement": "Selectivity ratio KYSE30 Gl50 vs. OVCAR3 Gl50", "setting": "OVCAR 3 cells", "value": "Y (>20 fold)"},
      {"measurement": "IC50", "setting": "WEE1; [3]", "value": "50 to 1000", "unit": "nM"},
      {"measurement": "PKMYT1 vs. WEE1 selectivity", "setting": "WEE1; [4]", "value": "W (10-<100 fold)"}
    ]},
    {"smiles": "Cc1ccc(O)c(C)c1NC(=O)c1cnc(Nc2ccc(N3CCC(F)(F)CC3)cn2)s1", "note": "[BAA-308, 2-((5-(4,4-difluoropiperidin-1-yl)pyridin-2-yl)amino)-N-(3-hydroxy-2,6-dimethylphenyl)thiazole-5-carboxamide]", "values": [
      {"measurement": "GI50", "setting": "KYSE-30 cells", "value": "500 to 5000", "unit": "nM"},
      {"measurement": "IC50", "setting": "[1]", "value": "< 100", "unit": "nM"},
      {"measurement": "IC50", "setting": "Human PKMYT1; [2]", "value": "50 to 1000", "unit": "nM"},
      {"measurement": "Selectivity ratio KYSE30 Gl50 vs. OVCAR3 Gl50", "setting": "OVCAR 3 cells", "value": "X (3-20 fold)"},
      {"measurement": "IC50", "setting": "WEE1; [3]", "value": "> 11000", "unit": "nM"},
      {"measurement": "PKMYT1 vs. WEE1 selectivity", "setting": "WEE1; [4]", "value": "X (100-<1000 fold)"}
    ]}
  ]
}
